Measured values published in ChEMBL document CHEMBL1201861, “Genomics of Drug Sensitity in Cancer screening data, Wellcome Trust Sanger Institute”.

Legend:
Format in all cases: functional, cell-based
CCF-STTG1 = experiment: cells; details: Homo sapiens;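 further: growth inhibition of human CCF-STTG1 cells, determined with a cell viability read-out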
Description: SANGER: Inhibition of human CCF-STTG1 cell growth in a cell viability assay.

NCI-H1618 = experiment: cells; details: Homo sapiens;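 further: growth inhibition of human NCI-H1618 cells, measured by a cell viability assay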
Description: SANGER: Inhibition of human NCI-H1618 cell growth in a cell viability assay.

EFE-184 = experiment: cells; details: Homo sapiens
Description: SANGER: Inhibition of human EFE-184 cell growth in a cell viability assay.

TT = experiment: cells; details: Homo sapiens
Description: SANGER: Inhibition of human TT cell growth in a cell viability assay.

DV-90 = experiment: cells; details: Homo sapiens;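 further: Read-out is a viability assay, with IC50 reflecting the drop in DV-90 cell growth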
Description: SANGER: Inhibition of human DV-90 cell growth in a cell viability assay.

NCI-H1734 = experiment: cells; details: Homo sapiens;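 further: growth inhibition of human NCI-H1734 cells, read out with a cell viability assay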
Description: SANGER: Inhibition of human NCI-H1734 cell growth in a cell viability assay.

COLO 205 = experiment: cells; details: Homo sapiens
Description: SANGER: Inhibition of human COLO-205 cell growth in a cell viability assay.

DMS-53 = experiment: cells; details: Homo sapiens;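 further: cell viability assay measuring growth inhibition of human DMS-53 cells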
Description: SANGER: Inhibition of human DMS-53 cell growth in a cell viability assay.

MFE-296 = experiment: SANGER: Inhibition of human MFE-296 cell growth in a cell viability assay.
NCI-H838 = experiment: cells; details: Homo sapiens;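 further: growth inhibition of human NCI-H838 cells, read out by a cell viability assay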
Description: SANGER: Inhibition of human NCI-H838 cell growth in a cell viability assay.

SNU-475 = experiment: cells; details: Homo sapiens
Description: SANGER: Inhibition of human SNU-475 cell growth in a cell viability assay.

EW-7 = experiment: SANGER: Inhibition of human EW-7 cell growth in a cell viability assay.
HCC1143 = experiment: cells; details: Homo sapiens;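 further: growth inhibition of human HCC1143 cells, read out with a cell viability assay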
Description: SANGER: Inhibition of human HCC1143 cell growth in a cell viability assay.

Calu-1 = experiment: SANGER: Inhibition of human Calu-1 cell growth in a cell viability assay.
NCI-H2227 = experiment: cells; details: Homo sapiens;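 further: growth inhibition of the human cell line, read out with a cell viability assay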
Description: SANGER: Inhibition of human NCI-H2227 cell growth in a cell viability assay.

C-4-II = experiment: SANGER: Inhibition of human C-4-II cell growth in a cell viability assay.
IPC-298 = experiment: SANGER: Inhibition of human IPC-298 cell growth in a cell viability assay.
Caov-3 cell line = experiment: cells; details: Homo sapiens;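 further: cell growth inhibition read out by a viability assay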
Description: SANGER: Inhibition of human Caov-3 cell growth in a cell viability assay.

MES-SA = experiment: cells; details: Homo sapiens;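 further: growth inhibition of human MES-SA cells, read out with a cell viability assay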
Description: SANGER: Inhibition of human MES-SA cell growth in a cell viability assay.

SNG-M = experiment: cells; details: Homo sapiens
Description: SANGER: Inhibition of human SNG-M cell growth in a cell viability assay.

SK-CO-1 = experiment: cells; details: Homo sapiens;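 further: growth inhibition of SK-CO-1 cells, determined by a viability readout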
Description: SANGER: Inhibition of human SK-CO-1 cell growth in a cell viability assay.

SMILES	IC50 (CCF-STTG1) [nM]	IC50 (NCI-H1618) [nM]	IC50 (EFE-184) [nM]	IC50 (TT) [nM]	IC50 (DV-90) [nM]	IC50 (NCI-H1734) [nM]	IC50 (COLO 205) [nM]	IC50 (DMS-53) [nM]	IC50 (MFE-296) [nM]	IC50 (NCI-H838) [nM]	IC50 (SNU-475) [nM]	IC50 (EW-7) [nM]	IC50 (HCC1143) [nM]	IC50 (Calu-1) [nM]	IC50 (NCI-H2227) [nM]	IC50 (C-4-II) [nM]	IC50 (IPC-298) [nM]	IC50 (Caov-3 cell line) [nM]	IC50 (MES-SA) [nM]	IC50 (SNG-M) [nM]	also measured
N#C/C(=C1/Nc2ccccc2S1)c1ccnc(NCCc2cccnc2)n1	6410	> 8000	4700	> 8000	> 8000	> 8000	> 8000	> 8000	1550	> 8000	> 8000	> 8000	4210	> 8000	> 8000	> 8000	7400	> 8000	4670	980	IC50 (SK-CO-1): > 8000 nM
C/C(O)=C(\C#N)C(=O)Nc1cc(Br)ccc1Br	> 16000	> 16000	> 16000	> 16000	> 16000	> 16000	> 16000	> 16000	> 16000	> 16000	> 16000	> 16000	> 16000	> 16000	> 16000	> 16000	> 16000	> 16000	> 16000	> 16000	IC50 (SK-CO-1): > 16000 nM
CC(O)(CS(=O)(=O)c1ccc(F)cc1)C(=O)Nc1ccc(C#N)c(C(F)(F)F)c1 (stereo unspecified) [BICALUTAMIDE]	> 1020	> 1020	> 1020	> 1020	> 1020	> 1020	> 1020	> 1020	> 1020	> 1020	> 1020	> 1020	> 1020	> 1020	> 1020	> 1020	> 1020	> 1020	> 1020	> 1020	IC50 (SK-CO-1): > 1020 nM
CCNC(=O)c1noc(-c2cc(C(C)C)c(O)cc2O)c1-c1ccc(CN2CCOCC2)cc1 [LUMINESPIB]	2.97	> 256	246	> 256	> 256	32.3	49.2	123	23.2	237	> 256	7.54	> 256	73.3	> 256	122	96.4	> 256	4.52	8.56	IC50 (SK-CO-1): 79.9 nM
CO[C@@]12[C@H](COC(N)=O)C3=C(C(=O)C(C)=C(N)C3=O)N1C[C@@H]1N[C@@H]12 [MITOMYCIN]	216	118	1380	3680	2920	137	< 62.5	809	286	1230	813	< 62.5	1070	4810	6320	104	1230	162	145	134	IC50 (SK-CO-1): 202 nM
C/C=C(/C)C(=O)O[C@H]1C(C)=C2[C@H]([C@@H]1OC(=O)CCCCCCC)[C@@](C)(OC(C)=O)C[C@H](OC(=O)CCC)[C@@]1(O)[C@H]2OC(=O)[C@@]1(C)O [THAPSIGARGIN]	67.3	10.1	> 512	217	28.8	1.48	3.15	380	2.95	35.3	> 512	6.34	2.07	2.1	> 512	20.6	6.54	37.2	< 2	< 2	IC50 (SK-CO-1): 17 nM
